# Reference: PubChem BioAssay AID1963839 (Molecular Pharmacology Branch, DTP, NCI, 2024)
# System: 817829-284-R-J1-PDC complex spheroid viability
# Assay: Anticancer human tumor 817829-284-R-J1-PDC patient-derived colon adenocarcinoma cell line growth inhibition [POLQ]
# Conditions: for IC50: curve of first compound; for viability, T/C: stronger effect = lower value
# In short: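 Complex spheroid viability model combining PDC tumour cells with endothelial (HUVEC) and MSC stromal cells. Novobiocin, ART-558 or RP6685 were tested singly and in combination with standard and investigational anticancer drugs. Each was titrated in half-log steps from near clinical Cmax, or from 10 microM where Cmax was unknown.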
# [1] = second compound 0.0316 µM, first compound 0.0316 µM
# [2] = second compound 0.0316 µM, first compound 0.1 µM
# [3] = second compound 0.0316 µM, first compound 0.316 µM
# [4] = second compound 0.0316 µM, first compound 1 µM
# [5] = second compound 0.1 µM, first compound 0.0316 µM
# [6] = second compound 0.1 µM, first compound 0.1 µM
# [7] = second compound 0.1 µM, first compound 0.316 µM
# [8] = second compound 0.1 µM, first compound 1 µM
# [9] = second compound 0.316 µM, first compound 0.0316 µM
# [10] = second compound 0.316 µM, first compound 0.1 µM
# [11] = second compound 0.316 µM, first compound 0.316 µM
# [12] = second compound 0.316 µM, first compound 1 µM
# [13] = second compound 1 µM, first compound 0.0316 µM
# [14] = second compound 1 µM, first compound 0.1 µM
# [15] = second compound 1 µM, first compound 0.316 µM
# [16] = second compound 1 µM, first compound 1 µM
# [17] = second compound 3.16 µM, first compound 0.0316 µM
# [18] = second compound 3.16 µM, first compound 0.1 µM
# [19] = second compound 3.16 µM, first compound 0.316 µM
# [20] = second compound 3.16 µM, first compound 1 µM
# [21] = second compound 10 µM, first compound 0.0316 µM
# [22] = second compound 10 µM, first compound 0.1 µM
# [23] = second compound 10 µM, first compound 0.316 µM
# [24] = second compound 10 µM, first compound 1 µM
# [25] = second compound 0.0316 µM, first compound 3.16 µM
# [26] = second compound 0.0316 µM, first compound 10 µM
# [27] = second compound 0.1 µM, first compound 3.16 µM
# [28] = second compound 0.1 µM, first compound 10 µM
# [29] = second compound 0.316 µM, first compound 3.16 µM
# [30] = second compound 0.316 µM, first compound 10 µM
# [31] = second compound 1 µM, first compound 3.16 µM
# [32] = second compound 1 µM, first compound 10 µM
# [33] = second compound 3.16 µM, first compound 3.16 µM
# [34] = second compound 3.16 µM, first compound 10 µM
# [35] = second compound 10 µM, first compound 3.16 µM
# [36] = second compound 10 µM, first compound 10 µM
# 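Further: spheroids exposed to compounds for 7 days.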
# 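Wherever viability, T/C is given: 100% = DMSO vehicle-treated spheroids.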
compound,measurement,setting,value
C=CCn1c(=O)c2cnc(Nc3ccc(N4CCN(C)CC4)cc3)nc2n1-c1cccc(C(C)(C)O)n1 + COC1C(OC(N)=O)C(O)C(Oc2ccc3c(O)c(NC(=O)c4ccc(O)c(CC=C(C)C)c4)c(=O)oc3c2C)OC1(C)C,IC50,second compound 0.0316 µM,0.161 µM
same,IC50,second compound 0.1 µM,0.144 µM
same,IC50,second compound 0.316 µM,0.176 µM
same,IC50,second compound 1 µM,0.19 µM
same,IC50,second compound 3.16 µM,0.176 µM
same,IC50,second compound 10 µM,0.133 µM
same,"viability, T/C","second compound 0.0316 µM, first compound 0.00316 µM",93%
same,"viability, T/C","second compound 0.0316 µM, first compound 0.01 µM",74.8%
same,"viability, T/C",[1],91.3%
same,"viability, T/C",[2],58%
same,"viability, T/C",[3],33.6%
same,"viability, T/C",[4],7.07%
same,"viability, T/C","second compound 0.1 µM, first compound 0.00316 µM",107%
same,"viability, T/C","second compound 0.1 µM, first compound 0.01 µM",91.4%
same,"viability, T/C",[5],87.2%
same,"viability, T/C",[6],55.5%
same,"viability, T/C",[7],32.3%
same,"viability, T/C",[8],6.47%
same,"viability, T/C","second compound 0.316 µM, first compound 0.00316 µM",100%
same,"viability, T/C","second compound 0.316 µM, first compound 0.01 µM",96.8%
same,"viability, T/C",[9],96.6%
same,"viability, T/C",[10],72%
same,"viability, T/C",[11],26.7%
same,"viability, T/C",[12],6%
same,"viability, T/C","second compound 1 µM, first compound 0.00316 µM",82.8%
same,"viability, T/C","second compound 1 µM, first compound 0.01 µM",95.9%
same,"viability, T/C",[13],110%
same,"viability, T/C",[14],70.6%
same,"viability, T/C",[15],32.2%
same,"viability, T/C",[16],7.21%
same,"viability, T/C","second compound 3.16 µM, first compound 0.00316 µM",109%
same,"viability, T/C","second compound 3.16 µM, first compound 0.01 µM",107%
same,"viability, T/C",[17],83%
same,"viability, T/C",[18],69.7%
same,"viability, T/C",[19],32.2%
same,"viability, T/C",[20],7.29%
same,"viability, T/C","second compound 10 µM, first compound 0.00316 µM",67.5%
same,"viability, T/C","second compound 10 µM, first compound 0.01 µM",96.1%
same,"viability, T/C",[21],69.7%
same,"viability, T/C",[22],55.2%
same,"viability, T/C",[23],30.8%
same,"viability, T/C",[24],8.11%
CCCS(=O)(=O)Nc1ccc(F)c(C(=O)c2c[nH]c3ncc(-c4ccc(Cl)cc4)cc23)c1F + COC1C(OC(N)=O)C(O)C(Oc2ccc3c(O)c(NC(=O)c4ccc(O)c(CC=C(C)C)c4)c(=O)oc3c2C)OC1(C)C,IC50,second compound 0.0316 µM,2.41 µM
same,IC50,second compound 0.1 µM,3.34 µM
same,IC50,second compound 0.316 µM,4.39 µM
same,IC50,second compound 1 µM,2.9 µM
same,IC50,second compound 3.16 µM,5.23 µM
same,IC50,second compound 10 µM,3.52 µM
same,"viability, T/C",[1],76%
same,"viability, T/C",[2],77%
same,"viability, T/C",[3],73.6%
same,"viability, T/C",[4],73.4%
same,"viability, T/C",[25],42.9%
same,"viability, T/C",[26],16.6%
same,"viability, T/C",[5],76.6%
same,"viability, T/C",[6],74.8%
same,"viability, T/C",[7],43.4%
same,"viability, T/C",[8],86.7%
same,"viability, T/C",[27],51.9%
same,"viability, T/C",[28],12.8%
same,"viability, T/C",[9],48.3%
same,"viability, T/C",[10],71.4%
same,"viability, T/C",[11],58.7%
same,"viability, T/C",[12],71.2%
same,"viability, T/C",[29],68.5%
same,"viability, T/C",[30],15.9%
same,"viability, T/C",[13],86.4%
same,"viability, T/C",[14],80.6%
same,"viability, T/C",[15],48.5%
same,"viability, T/C",[16],74.6%
same,"viability, T/C",[31],51.6%
same,"viability, T/C",[32],13%
same,"viability, T/C",[17],76.3%
same,"viability, T/C",[18],76.8%
same,"viability, T/C",[19],89.3%
same,"viability, T/C",[20],79.1%
same,"viability, T/C",[33],76.3%
same,"viability, T/C",[34],16.1%
same,"viability, T/C",[21],82%
same,"viability, T/C",[22],86.4%
same,"viability, T/C",[23],62.1%
same,"viability, T/C",[24],86.4%
same,"viability, T/C",[35],53.8%
same,"viability, T/C",[36],13%
CNCc1ccc(-c2[nH]c3cc(F)cc4c3c2CCNC4=O)cc1 + COC1C(OC(N)=O)C(O)C(Oc2ccc3c(O)c(NC(=O)c4ccc(O)c(CC=C(C)C)c4)c(=O)oc3c2C)OC1(C)C,IC50,second compound 0.0316 µM,6.63 µM
same,IC50,second compound 0.1 µM,> 10 µM
same,IC50,second compound 0.316 µM,> 10 µM
same,IC50,second compound 1 µM,5.24 µM
same,IC50,second compound 3.16 µM,5.17 µM
same,IC50,second compound 10 µM,5.38 µM
same,"viability, T/C",[1],95.8%
same,"viability, T/C",[2],94%
same,"viability, T/C",[3],83%
same,"viability, T/C",[4],76.8%
same,"viability, T/C",[25],68.8%
same,"viability, T/C",[26],40.2%
same,"viability, T/C",[5],73.3%
same,"viability, T/C",[6],102%
same,"viability, T/C",[7],86%
same,"viability, T/C",[8],55.2%
same,"viability, T/C",[27],72.8%
same,"viability, T/C",[28],53.3%
same,"viability, T/C",[9],99.1%
same,"viability, T/C",[10],108%
same,"viability, T/C",[11],83.7%
same,"viability, T/C",[12],80.4%
same,"viability, T/C",[29],74.3%
same,"viability, T/C",[30],51.5%
same,"viability, T/C",[13],125%
same,"viability, T/C",[14],91.6%
same,"viability, T/C",[15],107%
same,"viability, T/C",[16],81.8%
same,"viability, T/C",[31],80.3%
same,"viability, T/C",[32],22%
same,"viability, T/C",[17],119%
same,"viability, T/C",[18],109%
same,"viability, T/C",[19],98.9%
same,"viability, T/C",[20],103%
same,"viability, T/C",[33],58.5%
same,"viability, T/C",[34],38.2%
same,"viability, T/C",[21],98%
same,"viability, T/C",[22],99%
same,"viability, T/C",[23],75.1%
same,"viability, T/C",[24],90.1%
same,"viability, T/C",[35],73.9%
same,"viability, T/C",[36],23.1%
O=C(c1cc(Cc2n[nH]c(=O)c3ccccc23)ccc1F)N1CCN(C(=O)C2CC2)CC1 + COC1C(OC(N)=O)C(O)C(Oc2ccc3c(O)c(NC(=O)c4ccc(O)c(CC=C(C)C)c4)c(=O)oc3c2C)OC1(C)C,IC50,second compound 0.0316 µM,2.18 µM
same,IC50,second compound 0.1 µM,4.58 µM
same,IC50,second compound 0.316 µM,3.28 µM
same,IC50,second compound 1 µM,4.29 µM
same,IC50,second compound 3.16 µM,3.83 µM
same,IC50,second compound 10 µM,4.49 µM
same,"viability, T/C",[1],71.5%
same,"viability, T/C",[2],109%
same,"viability, T/C",[3],88.3%
same,"viability, T/C",[4],61.2%
same,"viability, T/C",[25],49.8%
same,"viability, T/C",[26],33.7%
same,"viability, T/C",[5],94.9%
same,"viability, T/C",[6],86.5%
same,"viability, T/C",[7],83.7%
same,"viability, T/C",[8],68.2%
same,"viability, T/C",[27],68.7%
same,"viability, T/C",[28],25.8%
same,"viability, T/C",[9],105%
same,"viability, T/C",[10],98.4%
same,"viability, T/C",[11],85.7%
same,"viability, T/C",[12],90.1%
same,"viability, T/C",[29],50%
same,"viability, T/C",[30],32.2%
same,"viability, T/C",[13],88.3%
same,"viability, T/C",[14],99.9%
same,"viability, T/C",[15],81.4%
same,"viability, T/C",[16],75.7%
same,"viability, T/C",[31],61.2%
same,"viability, T/C",[32],24.3%
same,"viability, T/C",[17],114%
same,"viability, T/C",[18],92.5%
same,"viability, T/C",[19],75.2%
same,"viability, T/C",[20],70.3%
same,"viability, T/C",[33],63.2%
same,"viability, T/C",[34],30.2%
same,"viability, T/C",[21],90.5%
same,"viability, T/C",[22],95.3%
same,"viability, T/C",[23],68.8%
same,"viability, T/C",[24],102%
same,"viability, T/C",[35],60.7%
same,"viability, T/C",[36],25.7%
